This is an account of results in patent US4755385A, “Oral pharmaceutical preparations containing 9-deoxo-11-deoxy-9,11-[imino[2-(2-methoxyethoxy)-ethylidene]-oxy]-(9S)-e rythromycin” (priority 1985, dated 1988).

For data set [1] the following is noted: DE-A1-2,515,075; particularly when given dissolved, e.g. intravenously; cited from earlier work.
The nature of data set [2]: Stability of the active substance as a function of pH (% intact substance).

Where two headings read alike, the source gives them in different places.

One may read the amount remaining as the share of the starting amount still present when the sample was taken.

Consider `CC[C@H]1OC(=O)[C@H](C)[C@@H](O[C@H]2C[C@@](C)(OC)[C@@H](O)[C@H](C)O2)[C@H](C)[C@@H](O[C@@H]2O[C@H](C)C[C@H](N(C)C)[C@H]2O)[C@](C)(O)C[C@@H](C)[C@@H]2NC(COCCOC)O[C@H]([C@H]2C)[C@]1(C)O` (stereo partly drawn) [AS-E 136, 9-deoxo-11-deoxy-9,11-[imino[2-(2-methoxyethoxy)-ethylidene]oxy]-(9S)-erythromycin], for which the antibacterial activity entry in data set [1] is recorded as “particularly good antibacterial activity”. For the same compound, in data set [2] (gastric juices (pH 1.0 to 2.0)), the “stability in acidic media / gastric juices” value is given as “usually destroyed in a short time”. In addition, the share remaining at 0.5 h in data set [2] (pH 1) was found to be 10%; in data set [2] (pH 6), 20%; in data set [2] (pH 6.5) it was 20%; in data set [2] (pH 7), 50%; in data set [2] (pH 7.5), 80%; in data set [2] (pH 8), 95%. In addition, the “chemical stability around pH 5.5” value in data set [2] (pH around 5.5) is “retains its susceptibility to hydrolysis unchanged”.

As for `CC[C@H]1OC(=O)[C@H](C)[C@@H](O[C@H]2C[C@@](C)(OC)[C@@H](O)[C@H](C)O2)[C@H](C)[C@@H](O[C@@H]2O[C@H](C)C[C@H](N(C)C)[C@H]2O)[C@](C)(O)C[C@@H](C)C(=O)[C@H](C)[C@@H](O)[C@]1(C)O` [erythromycin, reference compound], the “chemical stability around pH 5.5” value was “chemically stable long enough to be resorbed”. In data set [2] (pH 1.3), this compound yielded a fraction remaining at 0.5 h of 30% and a fraction remaining at 1 h of 10%. For the same compound, in data set [2] (pH 4.5), the fraction remaining at 0.5 h came to 55% and the fraction remaining at 1 h was 50%. In data set [2] (pH 5.5), this compound displayed a share remaining at 0.5 h of 100% and an amount remaining at 1 h of 85%.
